Experimental data reported in patent US12622899B2 (PureTech LYT 100, Inc., priority 2018, dated 2026).

What was measured:
[1] = system: rat BLM induced lung fibrosis model; settings: in vivo, 400 mg/kg
Protocol: For Groups 4, 5, 6, and 7, bleomycin and vehicle dosing were conducted as indicated in Table 28 (0.45 mg/kg, at 1696 IU/mg of Bleomycin or saline on Day 1, 2, 3, 6 and 7).

healthy older adults = experiment: Study LYT-100-2021-103 Part 3 (Example 2): safety and tolerability vs placebo; settings: for Abdominal Pain/Discomfort/Distension, adverse events / Diarrhea, adverse events / Dizziness, adverse events / Dyspepsia, adverse events / GI Disorders, adverse events / Headache, adverse events / Nausea, adverse events / Nervous System Disorders, adverse events / Vomiting, adverse events: fed, N=13
Protocol: Only subjects who met all the applicable inclusion and none of the applicable exclusion criteria were randomized.
Safety and tolerability were assessed by monitoring AEs, physical examination, vital signs, 12-lead ECGs, clinical laboratory values (hematology panel, multiphasic chemistry panel and urinalysis), and review of concomitant treatments/medication use.

[2] = system: patients with COVID-19 respiratory disease; experiment: Phase 2 trial of LYT-100 in post-acute COVID-19 respiratory disease: tolerability; format: in vivo, human; settings: COVID-19 study
Protocol: An initial dosage of 500 mg BID was given the first 3 days of dosing, followed by 750 mg BID thereafter.

CYP2C19 = biological target: T1, CYP2C19 (Homo sapiens, UniProt P33261); experiment: In vitro stability with recombinant human CYP2C19; format: in vitro ADME; settings: recombinant human isozyme; read-out: t1/2 following incubation with CYP2C19 (converted)
T1 construct: host or cells: heterologous cell systems (not specified)
T1 sequence (P33261 whole entry): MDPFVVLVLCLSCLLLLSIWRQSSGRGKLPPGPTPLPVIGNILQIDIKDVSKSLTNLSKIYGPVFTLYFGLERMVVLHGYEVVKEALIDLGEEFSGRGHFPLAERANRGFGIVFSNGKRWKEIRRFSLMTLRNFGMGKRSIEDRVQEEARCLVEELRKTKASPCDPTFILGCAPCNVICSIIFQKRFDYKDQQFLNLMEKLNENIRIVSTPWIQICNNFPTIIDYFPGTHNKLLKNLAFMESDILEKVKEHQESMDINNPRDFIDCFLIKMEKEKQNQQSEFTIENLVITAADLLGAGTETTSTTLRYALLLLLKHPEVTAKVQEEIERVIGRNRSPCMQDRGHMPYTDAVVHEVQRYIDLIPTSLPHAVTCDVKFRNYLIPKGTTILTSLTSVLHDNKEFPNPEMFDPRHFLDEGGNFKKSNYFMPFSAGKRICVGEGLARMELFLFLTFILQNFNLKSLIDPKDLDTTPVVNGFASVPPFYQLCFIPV
Protocol: The half-life (t½) of each test article was determined.

[3] = system: patients with Idiopathic Pulmonary Fibrosis (IPF); experiment: IPF trial Part A (26-week double-blind): efficacy, FVC and FVCpp, time to progression; format: in vivo, human; settings: for FVC, Bayesian Posterior Mean Difference vs. Placebo / FVC, Frequentist Adjusted Mean Difference vs. Placebo / FVCpp, Bayesian Posterior Mean comparison vs. Placebo / FVCpp, Frequentist Adjusted Mean comparison vs. Placebo / Treatment effect, FVC, versus placebo / Treatment effect, FVCpp, versus placebo: 26 weeks
Protocol: The primary objective was to determine the dose(s) to carry into Phase 3. […] Patients were randomized to one of the four treatments in a 1:1:1:1 ratio and stratified based on prior exposure to nintedanib (<6 months) versus nintedanib-naïve patients. Patients who completed the Double-blind Treatment Period (Part A) were offered participation in the Long-term Extension (Part B). […] For patients who participated in Part B, the follow-up was conducted at the end of Part B. A graphical illustration of an embodiment of the trial design is provided as FIG. 24B.
Doses were adjusted according to safety and tolerability to avoid toxicity.
Note that, for all treatment groups, the first 7 days of treatment, one capsule was taken TID., Day 8 through Day 14, two capsules TID., and Day 15 forward, 3 capsules TID.
Weekly home FVC was assessed with an individual spirometer, which was supplied to each patient. The site used its own equipment for in-clinic FVC assessments. Spirometry measurements were performed according to the American Thoracic Society/European Respiratory Society (“An Official American Thoracic Society and European Respiratory Society Technical Statement Technical Statement” Am J Respir Crit Care Med. 2019; 200(8):e71-e83) and the study specific Pulmonary Function Manual, at timepoints specified in the Schedule of Assessments. Spirometry was conducted while the patient was in a seated position. The test was done in order to achieve three acceptable FVC measurements (three curves to be provided), and the best result selected according to the guidelines. The best of three efforts was defined as the highest FVC, obtained on any of the three blows meeting the ATS/ERS/JRS/ALAT 2019 criteria (Graham et al, 2019) with preferably a maximum of eight attempts.
Pulmonary function was measured in a standardized manner and results transmitted electronically during the visit immediately after performing the spirometry and evaluated by a central reader. In case the acceptability and repeatability criteria as specified by ATS/ERS/JRS/ALAT guidelines were not met, a repeat spirometry was performed during the same visit.
The primary efficacy endpoint was the rate of decline in FVC mL over 26 weeks. In addition, decline in FVC % predicted from baseline to Week 26 and by >10% and >5% was assessed.
The secondary endpoint was comparison of FVC % predicted change from baseline to Week 26.
The following parameters were measured or calculated as part of the spirometry assessment: • FVC (mL) and FVC % predicted (FVCpp) • FEV1 (mL) and percent predicted forced expiratory volume in 1 second (FEV1% p) • FEV1/FVC ratio • Forced expiratory flow between 25% and 75% of exhaled volume (FEF25-75) The ‘2012 Global Lung Function Initiative Equations’ was used to calculate the predicted values (Quanjer et al, “Multi-ethnic reference values for spirometry for the 3-95 year age range: the global lung function 2012 equations: Report of the Global Lung Function Initiative (GLI), ERS Task Force to establish improved Lung Function Reference Values.,” Eur Respir J, vol. 40(6), pp. 1324-1343, 2012). […]

[4] = Part 3 safety population, LYT-100 550 mg TID Days 1-3 then 824 mg TID Days 4-6, N=24
[5] = LYT-100 500 mg BID 3 days then 750 mg BID
[6] = deupirfenidone 550 mg TID, N=65
[7] = deupirfenidone 825 mg TID, N=63
[8] = deupirfenidone 825 mg TID, N=63, listed as Deupirfenidone
[9] = deupirfenidone 825 mg TID, N=63, listed as deupirfenidone

SMILES: [2H]C([2H])([2H])c1ccc(=O)n(-c2ccccc2)c1 [LYT-100, 5-(methyl-d3)-1-phenylpyridin-2-(1H)-one]
- tolerability [1]: well tolerated
- deaths or SAEs (healthy older adults; Part 3): No deaths or SAEs
- Abdominal Pain/Discomfort/Distension, adverse events (healthy older adults; Part 3, LYT-100 550 mg TID): 0 n (%)
- Diarrhea, adverse events (healthy older adults; Part 3, LYT-100 550 mg TID): 1 (4.2) n (%)
- Dizziness, adverse events (healthy older adults; Part 3, LYT-100 550 mg TID): 1 (4.2) n (%)
- Dyspepsia, adverse events (healthy older adults; Part 3, LYT-100 550 mg TID): 1 (4.2) n (%)
- GI Disorders, adverse events (healthy older adults; Part 3, LYT-100 550 mg TID): 2 (8.3) n (%)
- Headache, adverse events (healthy older adults; Part 3, LYT-100 550 mg TID): 3 (12.5) n (%)
- Nausea, adverse events (healthy older adults; Part 3, LYT-100 550 mg TID): 0 n (%)
- Nervous System Disorders, adverse events (healthy older adults; Part 3, LYT-100 550 mg TID): 3 (12.5) n (%)
- Vomiting, adverse events (healthy older adults; Part 3, LYT-100 550 mg TID): 0 n (%)
- tolerability (healthy older adults; Part 3, LYT-100 824 mg TID, 3 treatment days): well tolerated
- Abdominal Pain/Discomfort/Distension, adverse events (healthy older adults; Part 3, LYT-100 824 mg TID): 0 n (%)
- Diarrhea, adverse events (healthy older adults; Part 3, LYT-100 824 mg TID): 0 n (%)
- Dizziness, adverse events (healthy older adults; Part 3, LYT-100 824 mg TID): 0 n (%)
- Dyspepsia, adverse events (healthy older adults; Part 3, LYT-100 824 mg TID): 0 n (%)
- GI Disorders, adverse events (healthy older adults; Part 3, LYT-100 824 mg TID): 0 n (%)
- Headache, adverse events (healthy older adults; Part 3, LYT-100 824 mg TID): 0 n (%)
- Nausea, adverse events (healthy older adults; Part 3, LYT-100 824 mg TID): 0 n (%)
- Nervous System Disorders, adverse events (healthy older adults; Part 3, LYT-100 824 mg TID): 0 n (%)
- Vomiting, adverse events (healthy older adults; Part 3, LYT-100 824 mg TID): 0 n (%)
- subjects discontinued due to a TEAE (all Covid-19) (healthy older adults; Part 3, LYT-100 group N=24): 3 (12.5%) n (%)
- subjects with at least one TEAE (healthy older adults; Part 3, LYT-100 group N=24): 8 (33.3%) n (%)
- subjects with mild TEAEs (healthy older adults; Part 3, LYT-100 group N=24): 7 (29.2%) n (%)
- COVID-19 TEAE (healthy older adults; [4]): 4 (16.7) n (%)
- Headache TEAE (healthy older adults; [4]): 3 (12.5) n (%)
- drug-related serious adverse events or deaths [2]: no drug-related serious adverse events (SAEs) or deaths
- discontinuation rate due to AEs at least possibly related [2, 5]: 8.6%
- dizziness, AE at least possibly related, incidence [2, 5]: 3.3%
- fatigue, AE at least possibly related, incidence [2, 5]: 2.2%
- headache, AE at least possibly related, incidence [2, 5]: 4.3%
- nausea, AE at least possibly related, incidence [2, 5]: 8.7%
- rash, AE at least possibly related, incidence [2, 5]: 3.3%
- Dyspepsia, treatment emergent AE, events ([2]; LYT-100 750 mg BID): 6 Events
- Dyspepsia, treatment emergent AE, subjects ([2]; LYT-100 750 mg BID): 6 (6.5) N (%)
- Headache, treatment emergent AE, events ([2]; LYT-100 750 mg BID): 5 Events
- Headache, treatment emergent AE, subjects ([2]; LYT-100 750 mg BID): 5 (5.4) N (%)
- Increase in Fibrin D Dimer, treatment emergent AE, events ([2]; LYT-100 750 mg BID): 6 Events
- Increase in Fibrin D Dimer, treatment emergent AE, subjects ([2]; LYT-100 750 mg BID): 5 (5.4) N (%)
- Nasopharyngitis, treatment emergent AE, events ([2]; LYT-100 750 mg BID): 7 Events
- Nasopharyngitis, treatment emergent AE, subjects ([2]; LYT-100 750 mg BID): 6 (6.5) N (%)
- Nausea, treatment emergent AE, events ([2]; LYT-100 750 mg BID): 10 Events
- Nausea, treatment emergent AE, subjects ([2]; LYT-100 750 mg BID): 8 (8.7) N (%)
- Upper abdominal pain, treatment emergent AE, events ([2]; LYT-100 750 mg BID): 6 Events
- Upper abdominal pain, treatment emergent AE, subjects ([2]; LYT-100 750 mg BID): 5 (5.4) N (%)
- half-life (CYP2C19): 3.67 h
- FVC, Bayesian Posterior Mean Difference vs. Placebo ([3]; deupirfenidone 550 mg TID): 34.1 mL
- FVC, Frequentist Adjusted Mean Difference vs. Placebo ([3]; deupirfenidone 550 mg TID): 31.8 mL
- FVCpp, Bayesian Posterior Mean comparison vs. Placebo ([3]; deupirfenidone 550 mg TID): 1.47
- FVCpp, Frequentist Adjusted Mean comparison vs. Placebo ([3]; deupirfenidone 550 mg TID): 1.62
- Treatment effect, FVC, versus placebo ([3]; deupirfenidone 550 mg TID): 28.3%
- Treatment effect, FVCpp, versus placebo ([3]; deupirfenidone 550 mg TID): 47.2%
- FVC, Bayesian Posterior Mean Difference vs. Placebo ([3]; deupirfenidone 825 mg TID): 90.9 mL
- FVC, Frequentist Adjusted Mean Difference vs. Placebo ([3]; deupirfenidone 825 mg TID): 91.0 mL
- FVCpp, Bayesian Posterior Mean comparison vs. Placebo ([3]; deupirfenidone 825 mg TID): 2.85
- FVCpp, Frequentist Adjusted Mean comparison vs. Placebo ([3]; deupirfenidone 825 mg TID): 3.00
- Treatment effect, FVC, versus placebo ([3]; deupirfenidone 825 mg TID): 80.9%
- Treatment effect, FVCpp, versus placebo ([3]; deupirfenidone 825 mg TID): 87.5%
- Treatment effect, FVC, versus placebo ([3]; deupirfenidone 825 mg TID, listed as Deupirfenidone): 80.9%
- Treatment effect, FVC, versus placebo ([3]; deupirfenidone 825 mg TID, listed as deupirfenidone): 80.9%
- 6-month FVC decline compared with healthy older adults ([3]; LYT-100 825 mg TID (FIG. 45)): in line with that seen for healthy adults >60 years
- Cohen's D, FVC ([3]; deupirfenidone 550 mg TID): 0.14
- Cohen's D, FVCpp ([3]; deupirfenidone 550 mg TID): 0.23
- Change from Baseline in FVC over 26 Weeks, Bayesian Posterior Mean (SE) [3, 6]: −76.7 (28.60) mL
- Change from Baseline in FVC over 26 Weeks, Frequentist Adjusted Mean (SE) [3, 6]: −80.7 (29.32) mL
- Change from Baseline in FVCpp over 26 Weeks, Bayesian Posterior Mean (SE) [3, 6]: −1.80 (0.88)
- Change from Baseline in FVCpp over 26 Weeks, Frequentist Adjusted Mean (SE) [3, 6]: −1.81 (0.886)
- Cohen's D, FVC ([3]; deupirfenidone 825 mg TID): 0.40
- Cohen's D, FVCpp ([3]; deupirfenidone 825 mg TID): 0.44
- Change from Baseline in FVC over 26 Weeks, Bayesian Posterior Mean (SE) [3, 7]: −19.9 (28.29) mL
- Change from Baseline in FVCpp over 26 Weeks, Bayesian Posterior Mean (SE) [3, 7]: −0.42 (0.88)
- Change from Baseline in FVC over 26 Weeks, Frequentist Adjusted Mean (SE) [3, 8]: −21.5 (28.86) mL
- Change from Baseline in FVCpp over 26 Weeks, Frequentist Adjusted Mean (SE) [3, 8]: −0.43 (0.872)
- Change from Baseline in FVC over 26 Weeks, Frequentist Adjusted Mean (SE) [3, 9]: -21.5 mL
- Change from Baseline in FVCpp over 26 Weeks, Frequentist Adjusted Mean (SE) [3, 9]: −0.43
